Usually Ki stands for the equilibrium dissociation constant of an inhibitor or competing ligand from its target.

The source of these data is ChEMBL document CHEMBL1146307, “Exploring the active site of phenylethanolamine N-methyltransferase with 1,2,3,4-tetrahydrobenz[h]isoquinoline inhibitors” (Bioorg Med Chem, 2007).

One experiment has as its target T1, Adrenergic receptor alpha-2 (Rattus norvegicus, UniProt P22086+P19328+P22909).
T1 sequence (P22086 whole entry): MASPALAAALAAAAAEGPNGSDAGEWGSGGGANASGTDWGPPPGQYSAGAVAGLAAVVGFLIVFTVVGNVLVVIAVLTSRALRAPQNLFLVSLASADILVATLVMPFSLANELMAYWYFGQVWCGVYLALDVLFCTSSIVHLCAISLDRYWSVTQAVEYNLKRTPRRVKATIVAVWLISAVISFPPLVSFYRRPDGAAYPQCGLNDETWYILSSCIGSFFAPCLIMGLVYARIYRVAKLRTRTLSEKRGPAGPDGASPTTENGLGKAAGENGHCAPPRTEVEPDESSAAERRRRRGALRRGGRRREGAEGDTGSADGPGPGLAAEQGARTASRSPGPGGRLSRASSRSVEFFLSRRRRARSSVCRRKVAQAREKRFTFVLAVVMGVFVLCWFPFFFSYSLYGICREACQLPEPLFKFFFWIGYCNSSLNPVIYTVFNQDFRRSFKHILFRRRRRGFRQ
T1 sequence (P19328 whole entry): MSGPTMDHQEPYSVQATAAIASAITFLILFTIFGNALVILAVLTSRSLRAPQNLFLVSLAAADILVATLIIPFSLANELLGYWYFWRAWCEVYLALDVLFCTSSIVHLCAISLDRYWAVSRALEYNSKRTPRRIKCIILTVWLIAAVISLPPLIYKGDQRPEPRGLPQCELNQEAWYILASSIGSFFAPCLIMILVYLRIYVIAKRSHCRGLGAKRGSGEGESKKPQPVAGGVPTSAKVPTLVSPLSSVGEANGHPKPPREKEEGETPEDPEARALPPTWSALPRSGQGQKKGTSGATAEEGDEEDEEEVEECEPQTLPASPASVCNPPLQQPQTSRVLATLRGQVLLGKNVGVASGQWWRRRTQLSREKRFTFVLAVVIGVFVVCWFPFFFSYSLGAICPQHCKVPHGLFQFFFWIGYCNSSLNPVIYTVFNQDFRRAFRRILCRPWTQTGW
T1 sequence (P22909 whole entry): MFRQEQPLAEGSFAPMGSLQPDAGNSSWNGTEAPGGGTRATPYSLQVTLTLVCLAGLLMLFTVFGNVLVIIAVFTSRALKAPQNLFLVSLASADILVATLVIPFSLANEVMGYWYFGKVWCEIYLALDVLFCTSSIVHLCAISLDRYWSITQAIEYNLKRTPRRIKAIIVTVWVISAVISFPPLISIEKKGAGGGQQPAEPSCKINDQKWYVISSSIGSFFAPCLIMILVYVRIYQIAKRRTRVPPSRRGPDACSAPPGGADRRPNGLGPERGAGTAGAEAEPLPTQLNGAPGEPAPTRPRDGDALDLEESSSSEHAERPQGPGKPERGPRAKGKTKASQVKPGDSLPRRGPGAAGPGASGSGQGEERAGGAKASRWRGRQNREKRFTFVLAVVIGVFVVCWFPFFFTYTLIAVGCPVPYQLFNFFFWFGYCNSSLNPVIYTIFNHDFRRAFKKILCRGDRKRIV
As to the kind of experiment: Displacement of [3H]clonidine from adrenergic alpha2 receptor in Sprague-Dawley rat cortex membrane. It is filed as cell membranes.
With `Oc1cccc2c3c(ccc12)CCNC3`, the inhibition constant (Ki) is 0.011 µM.
The same measure, in the same setting: the same measure for `NS(=O)(=O)c1cccc2c3c(ccc12)CCNC3`: 2.9 µM; for `O=[N+]([O-])c1cccc2c3c(ccc12)CCNC3`: 0.41 µM.
As to `c1ccc2c3c(ccc2c1)CCNC3`, the Ki turned out to be 0.016 µM.
On to `Brc1cccc2c3c(ccc12)CCNC3`, for which the Ki worked out at 0.1 µM.
The compound `COc1cccc2c3c(ccc12)CCNC3` returned an inhibition constant (Ki) of 0.16 µM.
For `N#Cc1cccc2c3c(ccc12)CCNC3`, the Ki came to 0.59 µM.

Test system in a further experiment: not listed separately
As to the kind of experiment: Selectivity for human PNMT over Sprague-Dawley rat adrenergic alpha-2 receptor.
On to `c1ccc2c(c1)CCNC2`, for which the Ratio Ki is 0.06.
